From patent US6204293A, “Inhibitors of protein isoprenyl transferases” (University of Pittsburgh, priority 1998, dated 2001)

target: T1, Rat brain protein farnesyltransferase (Rattus norvegicus, UniProt Q02293+Q04631); experiment: % inhibition of farnesylation, scintillation proximity assay with biotin-K Ras B fragment; type: biochemical; conditions: Table 1; 1 × 10^-5 M
T1 construct: Rat brain protein farnesyltransferase activity is measured; from tissue; host or cells: rat brain
How it was run: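 Scintillation proximity read-out of farnesylation, using a biotinylated K Ras B fragment (0.1 mM final) in place of biotin-lamin. Enzyme purified from rat brain; results given as % inhibition.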

T1 sequence (Q02293 whole entry, the tested form may be a part, one chain of several): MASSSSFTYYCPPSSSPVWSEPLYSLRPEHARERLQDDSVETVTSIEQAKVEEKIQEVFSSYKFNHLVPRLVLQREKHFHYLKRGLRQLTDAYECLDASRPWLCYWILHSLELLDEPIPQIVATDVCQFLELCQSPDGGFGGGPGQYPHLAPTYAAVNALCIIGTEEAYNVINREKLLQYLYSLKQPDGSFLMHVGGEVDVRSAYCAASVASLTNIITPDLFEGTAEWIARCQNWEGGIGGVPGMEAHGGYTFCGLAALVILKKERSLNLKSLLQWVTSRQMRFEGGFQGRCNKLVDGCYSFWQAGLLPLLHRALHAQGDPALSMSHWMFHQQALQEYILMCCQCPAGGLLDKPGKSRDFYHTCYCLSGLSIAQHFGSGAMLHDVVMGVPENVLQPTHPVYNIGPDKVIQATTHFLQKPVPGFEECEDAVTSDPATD

**Q.** How did the “% inhibition at 1 × 10^-5 M” value turn out when `COc1cc2c(cc1OC)C(CNCc1ccc(C(=O)N[C@@H](CCSC)C(=O)O)c(-c3ccccc3)c1)=CC(C1CCCCC1)C2` (stereo partly shown) [Example 659] was run?
**A.** 55%

**Q.** With `CSCC[C@H](NC(=O)c1ccc(CNCCC2CCCCC2)cc1-c1ccccc1)C(=O)O` [Example 663] as the molecule, how does the “% inhibition at 1 × 10^-5 M” value read?
**A.** 43%

**Q.** With `C=C[C@@H](CC1CCCCC1)NCc1ccc(C(=O)N[C@@H](CCSC)C(=O)O)c(-c2ccccc2)c1` [Example 664] as the molecule, how does the “% inhibition at 1 × 10^-5 M” value read?
**A.** 75%

**Q.** How did the “% inhibition at 1 × 10^-5 M” value turn out when `CSCC[C@H](NC(=O)c1ccc(CNc2ccccc2N(C)C)cc1-c1ccccc1)C(=O)O` [Example 672] was run?
**A.** 48%

**Q.** How did the “% inhibition at 1 × 10^-5 M” value turn out when `CSCC[C@H](NC(=O)c1ccc(CNc2cccc(C)c2)cc1-c1ccccc1)C(=O)O` [Example 674] was run?
**A.** 40%

**Q.** For `CSCC[C@H](NC(=O)c1ccc(CNc2cccc(O)c2)cc1-c1ccccc1)C(=O)O` [Example 676], which “% inhibition at 1 × 10^-5 M” value is on record?
**A.** 76%

**Q.** Which “% inhibition at 1 × 10^-5 M” value does the source give for `CSCC[C@H](NC(=O)c1ccc(CNc2cccc(OC(F)(F)F)c2)cc1-c1ccccc1)C(=O)O` [Example 678] here?
**A.** 73%

**Q.** Which “% inhibition at 1 × 10^-5 M” value does the source give for `CSCC[C@H](NC(=O)c1ccc(CNc2cccc(CO)c2)cc1-c1ccccc1)C(=O)O` [Example 680] here?
**A.** 58%

**Q.** How did the “% inhibition at 1 × 10^-5 M” value turn out when `CSCC[C@H](NC(=O)c1ccc(CNc2cccc(N(C)C)c2)cc1-c1ccccc1)C(=O)O` [Example 683] was run?
**A.** 57%

**Q.** `CSCC[C@H](NC(=O)c1ccc(CNc2cccc(CC(=O)O)c2)cc1-c1ccccc1)C(=O)O` [Example 684] was tested. Which “% inhibition at 1 × 10^-5 M” value did it give?
**A.** 48%

**Q.** For `CSCC[C@H](NC(=O)c1ccc(CNc2cccc(CCC(=O)O)c2)cc1-c1ccccc1)C(=O)O` [Example 685], which “% inhibition at 1 × 10^-5 M” value is on record?
**A.** 55%

**Q.** With `CSCC[C@H](NC(=O)c1ccc(CNc2cccc(Oc3ccccc3)c2)cc1-c1ccccc1)C(=O)O` [Example 686] as the molecule, how does the “% inhibition at 1 × 10^-5 M” value read?
**A.** 48%

**Q.** With `CSCC[C@H](NC(=O)c1ccc(CNc2ccc(F)cc2)cc1-c1ccccc1)C(=O)O` [Example 687] as the molecule, how does the “% inhibition at 1 × 10^-5 M” value read?
**A.** 78%

**Q.** With `CSCC[C@H](NC(=O)c1ccc(CNc2ccc(I)cc2)cc1-c1ccccc1)C(=O)O` [Example 688] as the molecule, how does the “% inhibition at 1 × 10^-5 M” value read?
**A.** 71%

**Q.** With `CSCC[C@H](NC(=O)c1ccc(CNc2ccc(O)cc2)cc1-c1ccccc1)C(=O)O` [Example 689] as the molecule, how does the “% inhibition at 1 × 10^-5 M” value read?
**A.** 73%

**Q.** Which “% inhibition at 1 × 10^-5 M” value does the source give for `COc1ccc(NCc2ccc(C(=O)N[C@@H](CCSC)C(=O)O)c(-c3ccccc3)c2)cc1` [Example 690] here?
**A.** 61%

**Q.** `CSCC[C@H](NC(=O)c1ccc(CNc2ccc(C(C)C)cc2)cc1-c1ccccc1)C(=O)O` [Example 692] was tested. Which “% inhibition at 1 × 10^-5 M” value did it give?
**A.** 74%

**Q.** `CSCC[C@H](NC(=O)c1ccc(CNc2ccc(C3CCCCC3)cc2)cc1-c1ccccc1)C(=O)O` [Example 699] was tested. Which “% inhibition at 1 × 10^-5 M” value did it give?
**A.** 74%

**Q.** `CSCC[C@H](NC(=O)c1ccc(CNc2ccc(-c3ccccc3)cc2)cc1-c1ccccc1)C(=O)O` [Example 700] was tested. Which “% inhibition at 1 × 10^-5 M” value did it give?
**A.** 68%

**Q.** For `CSCC[C@H](NC(=O)c1ccc(CNc2ccc(Oc3ccccc3)cc2)cc1-c1ccccc1)C(=O)O` [Example 701], which “% inhibition at 1 × 10^-5 M” value is on record?
**A.** 64%

**Q.** `CSCC[C@H](NC(=O)c1ccc(CNc2ccc(C(=O)c3ccccc3)cc2)cc1-c1ccccc1)C(=O)O` [Example 702] was tested. Which “% inhibition at 1 × 10^-5 M” value did it give?
**A.** 79%

**Q.** `CSCC[C@H](NC(=O)c1ccc(CNc2ccc(C)c(C)c2)cc1-c1ccccc1)C(=O)O` [Example 704] was tested. Which “% inhibition at 1 × 10^-5 M” value did it give?
**A.** 67%

**Q.** Which “% inhibition at 1 × 10^-5 M” value does the source give for `CSCC[C@H](NC(=O)c1ccc(CNc2ccc3c(c2)CCC3)cc1-c1ccccc1)C(=O)O` [Example 705] here?
**A.** 72%

**Q.** For `CSCC[C@H](NC(=O)c1ccc(CNc2ccc3c(c2)Cc2ccccc2-3)cc1-c1ccccc1)C(=O)O` [Example 706], which “% inhibition at 1 × 10^-5 M” value is on record?
**A.** 53%

**Q.** `CSCC[C@H](NC(=O)c1ccc(CNc2ccc3ncccc3c2)cc1-c1ccccc1)C(=O)O` [Example 708] was tested. Which “% inhibition at 1 × 10^-5 M” value did it give?
**A.** 76%

**Q.** With `CSCC[C@H](NC(=O)c1ccc(CNc2cc(C)cc(C)c2)cc1-c1ccccc1)C(=O)O` [Example 709] as the molecule, how does the “% inhibition at 1 × 10^-5 M” value read?
**A.** 55%

**Q.** Which “% inhibition at 1 × 10^-5 M” value does the source give for `CSCC[C@H](NC(=O)c1ccc(CNc2cc(C(=O)O)cc(C(=O)O)c2)cc1-c1ccccc1)C(=O)O` [Example 710] here?
**A.** 45%

**Q.** For `CCN(Cc1ccc(C(=O)N[C@@H](CCSC)C(=O)O)c(-c2ccccc2)c1)Cc1cc([N+](=O)[O-])ccc1O` [Example 711], which “% inhibition at 1 × 10^-5 M” value is on record?
**A.** 46%

**Q.** For `CSCC[C@H](NC(=O)c1ccc(CNCc2cc(Cl)cc(Cl)c2)cc1-c1ccccc1)C(=O)O` [Example 712], which “% inhibition at 1 × 10^-5 M” value is on record?
**A.** 69%

**Q.** `CSCC[C@H](NC(=O)c1ccc(CNC(CO)C(O)c2ccccc2)cc1-c1ccccc1)C(=O)O` (stereo partly shown) [Example 713] was tested. Which “% inhibition at 1 × 10^-5 M” value did it give?
**A.** 40%

same assay, conditions: Table 2; 1 × 10^-6 M

**Q.** `COc1cccc(CNCc2ccc(C(=O)N[C@@H](CCSC)C(=O)O)c(-c3ccccc3)c2)c1` [Example 652] was tested. Which “% inhibition at 1 × 10^-6 M” value did it give?
**A.** 41%

**Q.** Which “% inhibition at 1 × 10^-6 M” value does the source give for `CSCC[C@H](NC(=O)c1ccc(CNCc2ccc(N)cc2)cc1-c1ccccc1)C(=O)O` [Example 653] here?
**A.** 62%

**Q.** Which “% inhibition at 1 × 10^-6 M” value does the source give for `COc1ccc(CNCc2ccc(C(=O)N[C@@H](CCSC)C(=O)O)c(-c3ccccc3)c2)c(OC)c1` [Example 655] here?
**A.** 35%

**Q.** How did the “% inhibition at 1 × 10^-6 M” value turn out when `CSCCC(NC(=O)c1ccc(CNC(CO)c2ccccc2)cc1-c1ccccc1)C(=O)O` (stereo not shown) [Example 657] was run?
**A.** 32%

**Q.** `CSCCC(NC(=O)c1ccc(CNC(CO)c2ccccc2)cc1-c1ccccc1)C(=O)O` (stereo not shown) [Example 658] was tested. Which “% inhibition at 1 × 10^-6 M” value did it give?
**A.** 73%

**Q.** Which “% inhibition at 1 × 10^-6 M” value does the source give for `CSCC[C@H](NC(=O)c1ccc(CNCC(O)c2cccc(O)c2)cc1-c1ccccc1)C(=O)O` (stereo partly shown) [Example 661] here?
**A.** 45%

**Q.** Which “% inhibition at 1 × 10^-6 M” value does the source give for `CSCC[C@H](NC(=O)c1ccc(CNC(CO)Cc2ccc(Cl)cc2)cc1-c1ccccc1)C(=O)O` (stereo partly shown) [Example 662] here?
**A.** 68%

**Q.** Which “% inhibition at 1 × 10^-6 M” value does the source give for `CSCC[C@H](NC(=O)c1ccc(CN[C@@H](/C=C\CC(C)C)CC2CCCCC2)cc1-c1ccccc1)C(=O)O` [Example 665] here?
**A.** 55%

**Q.** `CSCC[C@H](NC(=O)c1ccc(CN[C@H](/C=C\CC(C)C)CC2CCCCC2)cc1-c1ccccc1)C(=O)O` [Example 666] was tested. Which “% inhibition at 1 × 10^-6 M” value did it give?
**A.** 82%

**Q.** For `CSCC[C@H](NC(=O)c1ccc(CNCCSc2ccccc2)cc1-c1ccccc1)C(=O)O` [Example 667], which “% inhibition at 1 × 10^-6 M” value is on record?
**A.** 83%

**Q.** How did the “% inhibition at 1 × 10^-6 M” value turn out when `CSCC[C@H](NC(=O)c1ccc(CNc2ccccc2CCO)cc1-c1ccccc1)C(=O)O` [Example 671] was run?
**A.** 36%

**Q.** `CSCC[C@H](NC(=O)c1ccc(CNc2ccccc2N2CCCCC2)cc1-c1ccccc1)C(=O)O` [Example 673] was tested. Which “% inhibition at 1 × 10^-6 M” value did it give?
**A.** 59%

**Q.** Which “% inhibition at 1 × 10^-6 M” value does the source give for `CSCC[C@H](NC(=O)c1ccc(CNc2cccc(I)c2)cc1-c1ccccc1)C(=O)O` [Example 677] here?
**A.** 37%

**Q.** How did the “% inhibition at 1 × 10^-6 M” value turn out when `CSCC[C@H](NC(=O)c1ccc(CNc2cccc(C(N)=O)c2)cc1-c1ccccc1)C(=O)O` [Example 682] was run?
**A.** 31%

**Q.** Which “% inhibition at 1 × 10^-6 M” value does the source give for `CSCC[C@H](NC(=O)c1ccc(CNc2ccc(OC(F)(F)F)cc2)cc1-c1ccccc1)C(=O)O` [Example 691] here?
**A.** 34%

**Q.** How did the “% inhibition at 1 × 10^-6 M” value turn out when `CSCC[C@H](NC(=O)c1ccc(CNc2ccc(C(O)(C(F)(F)F)C(F)(F)F)cc2)cc1-c1ccccc1)C(=O)O` [Example 693] was run?
**A.** 53%

**Q.** With `CSCC[C@H](NC(=O)c1ccc(CNc2ccc(CCO)cc2)cc1-c1ccccc1)C(=O)O` [Example 694] as the molecule, how does the “% inhibition at 1 × 10^-6 M” value read?
**A.** 45%

**Q.** Which “% inhibition at 1 × 10^-6 M” value does the source give for `CSCC[C@H](NC(=O)c1ccc(CNc2ccc(N3CCCCC3)cc2)cc1-c1ccccc1)C(=O)O` [Example 697] here?
**A.** 39%

**Q.** How did the “% inhibition at 1 × 10^-6 M” value turn out when `CSCC[C@H](NC(=O)c1ccc(CNc2ccc(-c3nc4ccccc4s3)cc2)cc1-c1ccccc1)C(=O)O` [Example 703] was run?
**A.** 40%
